Results: US20240174680A1, “CDK2 INHIBITORS AND METHODS OF USING THE SAME” (Cedilla Therapeutics, Inc., priority 2021, published 2024)
pIC50: −log10 of the molar value.

Target: CDK2/Cyclin E1 (Homo sapiens, UniProt P24941)
Assay: CDK2/Cyclin E1 Caliper LabChip EZ Reader mobility shift assay
Assay type: biochemical
Set-up: purchased Eurofins 14-475
Conditions: read-out: Caliper Assay (CDK2/CCNE1): IC50
Summary of the method: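 Substrate-to-product conversion of fluorescent peptide (1.5 μM final) read by capillary electrophoresis after 100 min reaction, EDTA-quenched. Enzyme (2.5 nM final) and ATP (100 μM final) were preincubated 30 min with inhibitor dilutions first. % activity vs concentration fitted four-parameter for IC50.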

Row | SMILES | pIC50
1 | C[C@@H](OCC1CCCCC1)[C@@H](CO)NC(=O)[C@@H]1CN(C(=O)c2cncs2)CC12CN(C(=O)[C@H]1CC1(C)C)C2 [I-307] | 7.00 to 8.00
2 | C[C@@H](OCC1CCCCC1)[C@@H](COC1CCCCC1)NC(=O)[C@@H]1CN(C(=O)c2cncs2)CC12CN(C(=O)[C@H]1CC1(C)C)C2 [I-308] | ≥ 8.00
3 | C[C@@H](OCC1CCCCC1)[C@@H](COC(F)(F)F)NC(=O)[C@@H]1CN(C(=O)c2cnn(Cc3ccccc3)c2)CC12CN(C(=O)[C@H]1CC1(C)C)C2 [I-309] | 7.00 to 8.00
4 | Cc1cc(C(=O)N2CC(C(=O)N[C@H](C(=O)N3CCCCC3)[C@@H](C)OCC3CCCCC3)C3(C2)CN(C(=O)[C@H]2CC2(C)C)C3)sn1 (stereo partly drawn) [I-311] | ≥ 8.00
5 | C[C@@H](OCC1CCOCC1)[C@@H](COC1CCC(F)(F)CC1)NC(=O)[C@@H]1CN(C(=O)c2cncs2)CC12CN(C(=O)[C@H]1CC1(C)C)C2 [I-312] | 7.00 to 8.00
6 | C[C@@H](OCC1CCC(F)(F)CC1)[C@H](NC(=O)[C@@H]1CN(C(=O)c2cncs2)CC12CN(C(=O)[C@H]1CC1(C)C)C2)C(C)(C)O [I-313] | ≥ 8.00
7 | C[C@@H](OCC1CCC(F)(F)CC1)[C@@H](COC1CCOCC1)NC(=O)[C@@H]1CN(C(=O)c2cncs2)CC12CN(C(=O)[C@H]1CC1(C)C)C2 [I-314] | ≥ 8.00
8 | C[C@@H](OCC1CCC(F)(F)CC1)[C@@H](COC1CCC(F)(F)CC1)NC(=O)[C@@H]1CN(C(=O)c2cncs2)CC12CN(C(=O)[C@H]1CC1(C)C)C2 [I-315] | ≥ 8.00
9 | CC(O[C@H](C)[C@@H](COC1CCC(F)(F)CC1)NC(=O)[C@@H]1CN(C(=O)c2cncs2)CC12CN(C(=O)[C@H]1CC1(F)F)C2)C1CCC(F)(F)CC1 (stereo partly drawn) [I-316] | 6.00 to 7.00
10 | COC[C@H]1CCCN(C(=O)[C@@H](NC(=O)[C@@H]2CN(C(=O)c3cncs3)CC23CN(C(=O)[C@H]2CC2(C)C)C3)[C@@H](C)OCc2ccc(Cl)cc2F)C1 [I-317] | ≥ 8.00
11 | COC[C@H]1CCCN(C(=O)[C@@H](NC(=O)[C@@H]2CN(C(=O)c3cncs3)CC23CN(C(=O)[C@H]2CC2(C)C)C3)[C@@H](C)OCc2ccc(F)cc2)C1 [I-318] | ≥ 8.00
12 | COC[C@H]1CCCN(C(=O)[C@@H](NC(=O)[C@@H]2CN(C(=O)c3cncs3)CC23CN(C(=O)[C@H]2CC2(C)C)C3)[C@@H](C)OCc2ccc(C(F)(F)F)cc2)C1 [I-319] | ≥ 8.00
13 | COC[C@H]1CCCN(C(=O)[C@@H](NC(=O)[C@@H]2CN(C(=O)c3cncs3)CC23CN(C(=O)[C@H]2CC2(C)C)C3)[C@@H](C)OCc2ccc(OC(F)(F)F)cc2)C1 [I-320] | ≥ 8.00
14 | COC[C@H]1CCCN(C(=O)[C@@H](NC(=O)[C@@H]2CN(C(=O)c3cncs3)CC23CN(C(=O)[C@H]2CC2(C)C)C3)[C@@H](C)OCc2ccccc2F)C1 [I-321] | 7.00 to 8.00
15 | COC[C@H]1CCCN(C(=O)[C@@H](NC(=O)[C@@H]2CN(C(=O)c3cncs3)CC23CN(C(=O)[C@H]2CC2(C)C)C3)[C@@H](C)OCc2cccc(F)c2)C1 [I-322] | ≥ 8.00
16 | COC[C@H]1CCCN(C(=O)CNC(=O)[C@@H]2CN(C(=O)c3cncs3)CC23CN(C(=O)[C@H]2CC2(C)C)C3)C1 [I-323] | 5.00 to 6.00
17 | COC[C@H]1CCCN(C(=O)[C@@H](C)NC(=O)[C@@H]2CN(C(=O)c3cncs3)CC23CN(C(=O)[C@H]2CC2(C)C)C3)C1 [I-324] | 5.00 to 6.00
18 | COC[C@H]1CCCN(C(=O)[C@H](C)NC(=O)[C@@H]2CN(C(=O)c3cncs3)CC23CN(C(=O)[C@H]2CC2(C)C)C3)C1 [I-325] | 5.00 to 6.00
19 | C[C@@H](OCC1CCC(F)(F)CC1)[C@H](NC(=O)[C@@H]1CN(C(=O)c2cncs2)CC12CN(C(=O)[C@H]1CC1(C)C)C2)C(=O)N1CCC[C@H](COC(F)(F)F)C1 [I-326] | ≥ 8.00
20 | C[C@@H](OCC1CCOCC1)[C@H](NC(=O)[C@@H]1CN(C(=O)c2cncs2)CC12CN(C(=O)[C@H]1CC1(C)C)C2)C(=O)N1CCC[C@H](COC(F)(F)F)C1 [I-327] | 7.00 to 8.00
21 | C[C@@H](OCC1CCCCC1)[C@H](NC(=O)[C@@H]1CN(C(=O)c2cncs2)CC12CN(C(=O)[C@H]1CC1(C)C)C2)C(=O)N1CCNCC1 [I-328] | ≥ 8.00
22 | C[C@@H](OCC1CCCCC1)[C@@H](COC1CCNCC1)NC(=O)[C@@H]1CN(C(=O)c2cncs2)CC12CN(C(=O)[C@H]1CC1(C)C)C2 [I-329] | ≥ 8.00
23 | C[C@@H](OCC1CCCCC1)[C@@H](COC1CCOCC1)NC(=O)[C@@H]1CN(C(=O)c2cncs2)CC12CN(C(=O)[C@H]1CC1(C)C)C2 [I-331] | ≥ 8.00
24 | C[C@@H](OCC1CCCCC1)[C@@H](COC1CCCNC1)NC(=O)[C@@H]1CN(C(=O)c2cncs2)CC12CN(C(=O)[C@H]1CC1(C)C)C2 (stereo partly drawn) [I-332] | ≥ 8.00
25 | C[C@@H](OCC1CCOCC1)[C@@H](COC1CCC(F)(F)CC1)NC(=O)[C@@H]1CN(C(=O)c2cncs2)CC12CN(C(=O)C(C)(C)C1CC1)C2 [I-333, (S)-2-(2-cyclopropyl-2-methylpropanoyl)-N-((2R,3R)-1-((4,4-difluorocyclohexyl)oxy)-3-((tetrahydro-2H-pyran-4-yl)methoxy)butan-2-yl)-6-(thiazole-5-carbonyl)-2,6-diazaspiro[3.4]octane-8-carboxamide] | 7.00 to 8.00
26 | C[C@@H](OCC12CCC(CC1)OC2)[C@H](NC(=O)[C@@H]1CN(C(=O)c2cncs2)CC12CN(C(=O)C(C)(C)C1CC1)C2)C(C)(C)O [I-334] | 6.00 to 7.00

Row | SMILES | pIC50
27 | C[C@@H](OCC1CCC(F)(F)CC1)[C@H](NC(=O)[C@@H]1CN(C(=O)c2cncs2)CC12CN(C(=O)[C@H]1CC1(C)C)C2)C(=O)N1CCC2(CC1)COC2 [I-335] | ≥ 8.00
28 | C[C@@H](OCC12CCC(CC1)OC2)[C@H](NC(=O)[C@@H]1CN(C(=O)c2cncs2)CC12CN(C(=O)[C@H]1CC1(C)C)C2)C(=O)N1CCC2(CC1)COC2 [I-336] | ≥ 8.00
29 | C[C@@H](OCC1CCC(F)(F)CC1)[C@H](NC(=O)[C@@H]1CN(C(=O)c2cncs2)CC12CN(C(=O)C(C)(C)C1CC1)C2)C(=O)N1CCC(O)CC1 [I-337] | ≥ 8.00
30 | CNC(=O)C(NC(=O)[C@@H]1CN(C(=O)c2cncs2)CC12CN(C(=O)C(C)(C)C1CC1)C2)c1cccc(C2CCOCC2)n1 (stereo partly drawn) [I-338] | < 5.00
31 | CC(C)(O)C(NC(=O)[C@@H]1CN(C(=O)c2cncs2)CC12CN(C(=O)C(C)(C)C1CC1)C2)c1cccc(C2CCOCC2)n1 (stereo partly drawn) [I-339] | 5.00 to 6.00
32 | CN(C)C(=O)C(NC(=O)[C@@H]1CN(C(=O)c2cncs2)CC12CN(C(=O)C(C)(C)C1CC1)C2)c1cccc(C2CCOCC2)n1 (stereo partly drawn) [I-340] | 5.00 to 6.00
33 | C[C@@H](OCC1CCOCC1)[C@H](NC(=O)[C@@H]1CN(C(=O)c2cncs2)CC12CN(C(=O)C(C)(C)C1CC1)C2)C(C)(C)O [I-341] | 6.00 to 7.00
34 | CNC(=O)[C@@H](NC(=O)[C@@H]1CN(C(=O)c2cncs2)CC12CN(C(=O)[C@H]1CC1(C)C)C2)[C@@H](C)OCC12CCC(CC1)OC2 [I-342] | 7.00 to 8.00
35 | Cc1nc(C)c(C(=O)N2C[C@@H](C(=O)N[C@H](C(=O)N3CCC4(CC3)COC4)[C@@H](C)OCC34CCC(CC3)OC4)C3(C2)CN(C(=O)[C@H]2CC2(C)C)C3)s1 [I-343] | ≥ 8.00
36 | CNC(=O)[C@@H](NC(=O)[C@@H]1CN(C(=O)c2cncs2)CC12CN(CC1CCCC1)C2)[C@@H](C)OCC12CCC(CC1)OC2 [I-344, (S)—N-((2S,3R)-3-(2-oxabicyclo[2.2.2]octan-4-ylmethoxy)-1-(methylamino)-1-oxobutan-2-yl)-2-(cyclopentylmethyl)-6-(thiazole-5-carbonyl)-2,6-diazaspiro[3.4]octane-8-carboxamide] | < 5.00
37 | CNC(=O)[C@@H](NC(=O)[C@@H]1CN(C(=O)c2cncs2)CC12CN(CC1CCOC1)C2)[C@@H](C)OCC12CCC(CC1)OC2 (stereo partly drawn) [I-345] | < 5.00
38 | CNC(=O)[C@@H](NC(=O)[C@@H]1CN(C(=O)c2cncs2)CC12CN(CC(C)(C)C)C2)[C@@H](C)OCC12CCC(CC1)OC2 [I-347] | < 5.00
39 | CNC(=O)[C@@H](NC(=O)[C@@H]1CN(C(=O)c2cncs2)CC12CN(CC1COC1)C2)[C@@H](C)OCC12CCC(CC1)OC2 [I-348] | 5.00 to 6.00
40 | CNC(=O)[C@@H](NC(=O)[C@@H]1CN(C(=O)c2cncs2)CC12CN(Cc1ccco1)C2)[C@@H](C)OCC12CCC(CC1)OC2 [I-349] | < 5.00
41 | CNC(=O)[C@@H](NC(=O)[C@@H]1CN(C(=O)c2cncs2)CC12CN(Cc1cnco1)C2)[C@@H](C)OCC12CCC(CC1)OC2 [I-350] | < 5.00
42 | CNC(=O)[C@@H](NC(=O)[C@@H]1CN(C(=O)c2cncs2)CC12CN(Cc1ccn[nH]1)C2)[C@@H](C)OCC12CCC(CC1)OC2 [I-351] | < 5.00
43 | CNC(=O)[C@@H](NC(=O)[C@@H]1CN(C(=O)c2cncs2)CC12CN(CC1CCCO1)C2)[C@@H](C)OCC1CCCCC1 (stereo partly drawn) [I-352] | < 5.00
44 | C[C@@H](OCC1CCCCC1)[C@H](NC(=O)C1CN(C(=O)c2cnn(Cc3ccccc3)c2)CC12CN(C(=O)[C@H]1CC1(C)C)C2)C(=O)NCCC(=O)O (stereo partly drawn) [I-353] | ≥ 8.00
45 | CNC(=O)[C@@H](NC(=O)[C@@H]1CN(C(=O)c2cncs2)CC12CN(C(=O)[C@H]1CC1(C)C)C2)[C@@H](C)OC[C@H]1CC[C@@H](C)CC1 [I-354] | ≥ 8.00
46 | CNC(=O)[C@@H](NC(=O)[C@@H]1CN(C(=O)c2cncs2)CC12CN(C(=O)[C@H]1CC1(C)C)C2)[C@@H](C)OCC1CCC2(CC1)CC2 [I-355] | ≥ 8.00
47 | CNC(=O)C(NC(=O)[C@@H]1CN(C(=O)c2cncs2)CC12CN(C(=O)[C@H]1CC1(C)C)C2)C(O)Cc1ccccc1 (stereo partly drawn) [I-356] | < 5.00
48 | C[C@@H](OC1(C2CCCCC2)CC1)[C@H](NC(=O)[C@@H]1CN(C(=O)c2cncs2)CC12CN(C(=O)[C@H]1CC1(C)C)C2)C(=O)N1CCCCC1 [I-357] | 7.00 to 8.00
49 | CNC(=O)[C@@H](NC(=O)[C@@H]1CN(C(=O)Cc2cn[nH]c2)CC12CN(C(=O)[C@H]1CC1(C)C)C2)[C@@H](C)OCc1ccccc1 [I-358] | < 5.00
50 | CC1(C)C[C@@H]1C(=O)N1CC2(CN(C(=O)c3cnn(Cc4ccccc4)c3)C[C@H]2C(=O)NCc2cccnn2)C1 [I-359] | < 5.00
51 | COC[C@H]1CCCN(C(=O)[C@@H](NC(=O)[C@@H]2CN(C(=O)c3cncs3)CC23CN(C(=O)[C@H]2CC2(C)C)C3)[C@@H](C)OC(C)C2CCC(F)(F)CC2)C1 (stereo partly drawn) [I-360] | ≥ 8.00
